Results as given in patent US6444615B1, “Herbicidal imidazolidinetrione and thioxo-imidazolidinediones” (Dow AgroSciences LLC, priority 2000, dated 2002).

Experiments:
Type in all cases: in vivo
Details in all cases: 1200 g/ha, scale of 0-100, 0 no activity, 100 total control, about two or four weeks after application
[1] = system: Hairy Beggarticks (Bidens pilosa); test: Herbicidal pre-emergence test, Hairy Beggarticks
Experimental: (§1) Listed below, a typical planting design for the test, consisting of four monocot weeds, four dicot weeds and one sedge weed. [table] For each compound, evaluation tests were carried out according to the following procedures: For preemergence tests, immediately after planting, the test compound was sprayed directly onto the soil surface. The flats or pots were placed in the greenhouse and then watered. For postemergence tests, seeds were allowed to germinate and grow for 10 to 21 days before application. The test plants were selected for uniformity, size and stage of development. The test plants were then treated with the test compound, returned to the greenhouse and watered. Untreated plants were used as a comparison. The compound to be evaluated was dissolved in an appropriate solvent, usually acetone, or a formulation of the evaluated compounds as described above, was added to the water, and sprayed over the flats or pots using a carrier volume equivalent to 187 or 468 liters per hectare to give a rate of application in grams per hectare (g/ha). About two or four weeks after application of the test compounds, the state of the plant was observed. Each species was evaluated on a scale of 0-100 in which 0 equals no activity and 100 equals total control.

[2] = system: Hairy Beggarticks (Bidens pilosa); test: Herbicidal post-emergence test, Hairy Beggarticks
Experimental: as §1

[3] = system: Nightshade, (black) (Solanum nigrum); test: Herbicidal pre-emergence test, Nightshade (black)
Experimental: as §1

[4] = system: Nightshade, (black) (Solanum nigrum); test: Herbicidal post-emergence test, Nightshade (black)
Experimental: as §1

[5] = system: Smartweed, (pale) (Polygonum lapathifolium); test: Herbicidal pre-emergence test, Smartweed (pale)
Experimental: as §1

[6] = system: Smartweed, (pale) (Polygonum lapathifolium); test: Herbicidal post-emergence test, Smartweed (pale)
Experimental: as §1

[7] = system: Velvetleaf (Abutilon theophrasti); test: Herbicidal pre-emergence test, Velvetleaf
Experimental: as §1

[8] = system: Velvetleaf (Abutilon theophrasti); test: Herbicidal post-emergence test, Velvetleaf
Experimental: as §1

[9] = system: Barnyardgrass (Echinochloa crusgalli); test: Herbicidal pre-emergence test, Barnyardgrass
Experimental: as §1

[10] = system: Barnyardgrass (Echinochloa crusgalli); test: Herbicidal post-emergence test, Barnyardgrass
Experimental: as §1

[11] = system: Crabgrass (large) (Digitaria sanguinalis); test: Herbicidal pre-emergence test, Crabgrass (large)
Experimental: as §1

[12] = system: Crabgrass (large) (Digitaria sanguinalis); test: Herbicidal post-emergence test, Crabgrass (large)
Experimental: as §1

[13] = system: Foxtail, (green) (Setaria viridis); test: Herbicidal pre-emergence test, Foxtail (green)
Experimental: as §1

[14] = system: Foxtail, (green) (Setaria viridis); test: Herbicidal post-emergence test, Foxtail (green)
Experimental: as §1

[15] = system: Nutsedge, (yellow) (Cyperus esculentus); test: Herbicidal pre-emergence test, Nutsedge (yellow)
Experimental: as §1

[16] = system: Nutsedge, (yellow) (Cyperus esculentus); test: Herbicidal post-emergence test, Nutsedge (yellow)
Experimental: as §1

[17] = system: Perennial Ryegrass (Lolium perenne); test: Herbicidal pre-emergence test, Perennial Ryegrass
Experimental: as §1

[18] = system: Perennial Ryegrass (Lolium perenne); test: Herbicidal post-emergence test, Perennial Ryegrass
Experimental: as §1

SMILES | Herbicidal Activity BID (pre-emergence) [1] | Herbicidal Activity BID (post-emergence) [2] | Herbicidal Activity NS (pre-emergence) [3] | Herbicidal Activity NS (post-emergence) [4] | Herbicidal Activity SMT (pre-emergence) [5] | Herbicidal Activity SMT (post-emergence) [6] | Herbicidal Activity VEL (pre-emergence) [7] | Herbicidal Activity VEL (post-emergence) [8] | Herbicidal Activity BYG (pre-emergence) [9] | Herbicidal Activity BYG (post-emergence) [10] | Herbicidal Activity CRB (pre-emergence) [11] | Herbicidal Activity CRB (post-emergence) [12] | Herbicidal Activity FOX (pre-emergence) [13] | Herbicidal Activity FOX (post-emergence) [14] | Herbicidal Activity NUT (pre-emergence) [15] | Herbicidal Activity NUT (post-emergence) [16] | Herbicidal Activity RYE (pre-emergence) [17] | Herbicidal Activity RYE (post-emergence) [18]
CCCN1C(=O)C(=O)N(c2cc(OC3CCCC3)c(Cl)cc2F)C1=O [Compound 8] | 100 | 95 | 100/100 | 100/100 | 20 | 100 | 100/100 | 100/100 | 0 | 60 | 100 | 40 | 0 | 95 | 0/0 | 0/0 | 0/0 | 0/0
C=CCOc1cc(N2C(=O)C(=O)N(CCCC)C2=O)c(F)cc1Cl [Compound 16] | 0 | 95 | 0 | 100 | 0 | 80 | 0 | 100 | 0/0 | 0/0 | 0/0 | 0/0 | 0 | 60 | 0/0 | 0/0 | 0/0 | 0/0
CCN1C(=O)C(=O)N(c2cc(OC3CCCC3)c(Cl)cc2F)C1=O [Compound 4] | 0 | 85 | 0 | 85 | 0 | 90 | 0 | 100 | 0 | 60 | 0/0 | 0/0 | 0 | 60 | 0/0 | 0/0 | 0/0 | 0/0
C#CCOc1cc(N2C(=O)C(=O)N(C)C2=O)c(F)cc1Cl [Compound 12] | 40 | 95 | 50 | 100 | 0 | 100 | 20 | 100 | 0 | 40 | 0 | 30 | 0 | 40 | 0/0 | 0/0 | 0/0 | 0/0
CCCN1C(=O)C(=O)N(c2cc(F)c(F)cc2F)C1=O [Compound C1, reference compound] | 0 | 40 | 0 | 80 | 0 | 60 | 0 | 60 | 0/0 | 0/0 | 0/0 | 0/0 | 0/0 | 0/0 | 0/0 | 0/0 | 0/0 | 0/0
C#CCN1C(=O)COc2cc(F)c(N3C(=O)C(=O)N(CC(F)(F)F)C3=O)cc21 [Compound 24] | 0 | 40 | 0 | 60 | 0 | 40 | 0 | 60 | 0/0 | 0/0 | 0/0 | 0/0 | 0/0 | 0/0 | 0/0 | 0/0 | 0/0 | 0/0
C#CCOc1cc(N2C(=O)C(=O)N(CCC)C2=O)c(F)cc1Cl [Compound 13] | 100 | 85 | 100/100 | 100/100 | 100 | 95 | 100/100 | 100/100 | 95 | 80 | 100 | 30 | 100 | 60 | 0 | 30 | 60 | 30
C#CCN1C(=O)COc2cc(F)c(N3C(=O)C(=O)N(CCC)C3=S)cc21 [Compound 25] | 100/100 | 100/100 | 100/100 | 100/100 | 100/100 | 100/100 | 100/100 | 100/100 | 100 | 30 | 100 | 30 | 100 | 60 | 80 | 40 | 85 | 0
O=C1C(=O)N(c2cc(OC3CCCC3)c(Cl)cc2F)C(=O)N1CCCl [Compound 6] | 30 | 0 | 30 | 80 | 30 | 0 | 0/0 | 0/0 | 40/40 | 40/40 | 30 | 0 | 30 | 0 | 0/0 | 0/0 | 0/0 | 0/0
